Results: ChEMBL document CHEMBL6153122, “Antimycobacterial Activities of the Zanthoxylum leprieurii Metabolite Adubangoamide and Non-Natural Fagaramide Analogues” (2025)
Converted amounts (≈) assume the structure as drawn.

Key:
Type in all cases: functional
[1] = tested on: Mycobacterium tuberculosis; experiment: Potency index, ratio of trans-fagaramide MIC to test compound MIC for antimycobacterial activity against drug-susceptible Mycobacterium tuberculosis H37Rv
[2] = tested on: Mycobacterium tuberculosis; experiment: Antimycobacterial activity against drug-susceptible Mycobacterium tuberculosis H37Rv by microplate Alamar blue assay
[3] = tested on: Mycobacterium tuberculosis; experiment: Antimycobacterial activity against drug-susceptible Mycobacterium tuberculosis H37Rv

| Compound | Ratio [1] | MIC [2] | MIC [3] |
| --- | --- | --- | --- |
| O=C(/C=C/c1ccc2c(c1)OCO2)NCc1cc(F)cc(F)c1 | 6 | 6.1 µM (≈ 1.94 µg/mL) |  |
| O=C(/C=C/c1ccc2c(c1)OCO2)NCc1ccc(N2CCC(c3ccc(F)cc3)CC2)cc1 |  | 17 µM (≈ 7.8 µg/mL) |  |
| COc1cccc(CNC(=O)/C=C/c2ccc3c(c2)OCO3)c1 |  | 200 µM (≈ 62.3 µg/mL) |  |
| CN(C)c1ccc(CNC(=O)/C=C/c2ccc3c(c2)OCO3)cc1 | 6 | 6 µM (≈ 1.95 µg/mL) |  |
| O=C(/C=C/c1ccc2c(c1)OCO2)NCc1ccccc1 |  | 167 µM (≈ 47 µg/mL) |  |
| O=C(/C=C/c1ccc2c(c1)OCO2)NCc1ccccc1Cl |  | 100 µM (≈ 31.6 µg/mL) |  |
| O=C(/C=C/c1ccc2c(c1)OCO2)NCc1ccc(N2CCC(C(F)(F)F)CC2)cc1 | 6 | 4.5 µM (≈ 1.95 µg/mL) |  |
| CC(C)=CCOc1ccc(/C=C/C(=O)NCC(C)C)cc1 | 3 | 10 µM (≈ 2.87 µg/mL) |  |
| O=C(/C=C/c1ccc2c(c1)OCO2)NCc1ccc(C(F)(F)F)cc1F |  | 21 µM (≈ 7.71 µg/mL) |  |
| CC(C)CNC(=O)/C=C/c1ccc2c(c1)OCO2 [FOGARAMIDE] |  |  | 32 µM (≈ 7.91 µg/mL) |
| CO[C@H]1/C=C/O[C@@]2(C)Oc3c(C)c(O)c4c(O)c(c(/C=N/N5CCN(C)CC5)c(O)c4c3C2=O)NC(=O)/C(C)=C\C=C\[C@H](C)[C@H](O)[C@@H](C)[C@@H](O)[C@@H](C)[C@H](OC(C)=O)[C@@H]1C [RIFAMPIN] |  | 0.3 µM (≈ 0.247 µg/mL) |  |
